Laboratory results: US9011853B2, “B7-H4 fusion proteins and methods of use thereof” (Amplimmune, Inc., priority 2009, dated 2015)
“And” between values parts separate entries of the source, which are not always exact repeats. Identical values can stand only once.

Test system: serum levels of 58 analytes
Experiment: Serum biomarker analysis, quantitative immunoassay multi-analyte profiling (Rules-Based Medicine RodentMAP v2.9), AA#80
Assay type: in vivo, mouse
Details: serum, individual mice; for GCP-2 (Granulocyte Chemotactic Potein-2): LDD 0.0245; for IL-17-(Interleukin-17): LDD 0.152; for GST-alpha (Glutathione S-Transferase alpha): LDD 0.42; for IL-1beta (Interleukin-1beta): LDD 0.447; for IL-12p70-(Interleukin-12p70): LDD 0.5712; for FGF-basic (Fibroblast Growth Factor-basic): LDD 0.577; for Haptoglobin: LDD 0.64; for IL-18 (Interleukin-18): LDD 0.674; for CRP (C Reactive Protein): LDD 0.83; for Factor VII: LDD 0.958; for FGF-9 (Fibroblast Growth Factor-9): LDD 0.9926; for GM-CSF (Granulocyte Macrophage-Colony Stimulating Factor): LDD 8.746; for Apo A1 (Apoilpoprotein A1): LDD 10.4; for CD40: LDD 12; for Eotaxin: LDD 12.25; for IL-3 (Interleukin-3): LDD 21.274; for EGF (Epidermal Growth Factor): LDD 39.1; for IL-1alpha (Interleukin-1alpha): LDD 44.92; for Endothelin-1: LDD 66.95; for IL-2 (Interleukin-2): LDD 67; for IFN-gamma (Interferon-gamma): LDD 67.82; for IL-4 (Interleukin-4): LDD 73.54; for IL-11 (Interleukin-11): LDD 87.38; for CD40 Ligand: LDD 92; for IL-10 (Interleukin-10): LDD 109.26; for Fibrinogen: LDD 170
Procedure: In AA#80, serum samples were collected on Day 27, Day 34, Day 41 and Day 55 via the submandibular vein. Approximately 200 μL of blood per mouse was collected in Microtainer® serum separator tubes. Serum was removed following centrifugation and stored at <−65° C. until analysis.
Selected serum samples were sent to Rules-Based Medicine (Austin, Tex.) for quantitative immunoassay multi-analyte profiling of serum samples, with the goal of identifying biomarkers that could be used to monitor disease progression and response to B7-H4-Ig treatment. Day 27, Day 34, and Day 41 sera from the three representative mice in the B7-H4-Ig group (tag #3332, 3334, and 3338) and three representative mice in the Synagis® group (tag #3324, 3329, and 3330) were analyzed for levels of 58 analytes using the RodentMAP v2.9 Testing Service.
Data from the Rules-Based Medicine analysis was analyzed using Microsoft Excel and GraphPad Prism software. T-tests were performed to compare the levels of each analyte in the B7-H4-Ig versus Synagis® treated samples. No correction was made for multiple comparisons. Additionally, correlation coefficients were calculated for each analyte versus disease score.

Human B7-H4-Ig: human B7-H4 extracellular domain fused to hinge, CH2 and CH3 regions of human immunoglobulin Cγ1 chain; representative SEQ ID NOs:114-137
GCP-2 (Granulocyte Chemotactic Potein-2) (Day 27): 18 ng/mL and 18.5 ng/mL and 16.6 ng/mL | IL-17-(Interleukin-17) (Day 27): <low> (2×) and 0.00451 ng/ml | GST-alpha (Glutathione S-Transferase alpha) (Day 27): <low> | IL-1beta (Interleukin-1beta) (Day 27): 4.36 ng/ml (2×) and 1.98 ng/ml | IL-12p70-(Interleukin-12p70) (Day 27): 0.0532 ng/ml (2×) and <low> | FGF-basic (Fibroblast Growth Factor-basic) (Day 27): 18.8 ng/mL and 17.8 ng/mL and 16.8 ng/mL | Haptoglobin (Day 27): 161 µg/mL and 204 µg/mL and 123 µg/mL | IL-18 (Interleukin-18) (Day 27): 13.3 ng/mL and 14.1 ng/mL and 11.7 ng/mL | CRP (C Reactive Protein) (Day 27): 13.4 µg/mL and 8.16 µg/mL and 7.98 µg/mL | Factor VII (Day 27): 33 ng/mL and 29.1 ng/mL and 26.4 ng/mL | FGF-9 (Fibroblast Growth Factor-9) (Day 27): <low> | GM-CSF (Granulocyte Macrophage-Colony Stimulating Factor) (Day 27): <low> | Apo A1 (Apoilpoprotein A1) (Day 27): 57.3 µg/mL and 53.7 µg/mL and 42.7 µg/mL | CD40 (Day 27): 135 pg/ml (2×) and 151 pg/ml | Eotaxin (Day 27): 626 pg/mL and 613 pg/mL and 623 pg/mL | IL-3 (Interleukin-3) (Day 27): <low> | EGF (Epidermal Growth Factor) (Day 27): 18.4 pg/mL and 21.4 pg/mL and 20.4 pg/mL | IL-1alpha (Interleukin-1alpha) (Day 27): 468 pg/mL and 284 pg/mL and 381 pg/mL | Endothelin-1 (Day 27): 20.2 pg/ml (2×) and 17.1 pg/ml | IL-2 (Interleukin-2) (Day 27): <low> | IFN-gamma (Interferon-gamma) (Day 27): <low> (2×) and 7.14 pg/ml | IL-4 (Interleukin-4) (Day 27): <low> and 27.9 pg/ml and 17.7 pg/ml | IL-11 (Interleukin-11) (Day 27): <low> (2×) and 27 pg/ml | CD40 Ligand (Day 27): 1980 pg/mL and 1550 pg/mL and 1320 pg/mL | IL-10 (Interleukin-10) (Day 27): <low> (2×) and 94.2 pg/ml | Fibrinogen (Day 27): <low> | GCP-2 (Granulocyte Chemotactic Potein-2) (Day 34): 17.1 ng/mL and 18.1 ng/mL and 16.2 ng/mL | IL-17-(Interleukin-17) (Day 34): 0.0152 ng/mL and 0.00808 ng/mL and 0.00572 ng/mL | GST-alpha (Glutathione S-Transferase alpha) (Day 34): <low> and 4.16 ng/ml and 2.96 ng/ml | IL-1beta (Interleukin-1beta) (Day 34): 5.12 ng/mL and 3.58 ng/mL | IL-12p70-(Interleukin-12p70) (Day 34): 0.0725 ng/ml and <low> | FGF-basic (Fibroblast Growth Factor-basic) (Day 34): 17.8 ng/mL | Haptoglobin (Day 34): 281 µg/mL and 162 µg/mL and 140 µg/mL | IL-18 (Interleukin-18) (Day 34): 11.7 ng/mL and 10.9 ng/mL and 13.1 ng/mL | CRP (C Reactive Protein) (Day 34): 17.2 µg/mL and 8.79 µg/mL and 12.4 µg/mL | Factor VII (Day 34): 31.7 ng/mL and 33 ng/mL and 29.1 ng/mL | FGF-9 (Fibroblast Growth Factor-9) (Day 34): <low> | GM-CSF (Granulocyte Macrophage-Colony Stimulating Factor) (Day 34): <low> | Apo A1 (Apoilpoprotein A1) (Day 34): 37.8 µg/mL and 48.5 µg/mL and 54.1 µg/mL | CD40 (Day 34): 96.7 pg/mL and 147 pg/mL and 136 pg/mL | Eotaxin (Day 34): 630 pg/mL and 602 pg/mL and 700 pg/mL | IL-3 (Interleukin-3) (Day 34): <low> | EGF (Epidermal Growth Factor) (Day 34): 22.4 pg/mL and 14.3 pg/mL and 20.4 pg/mL | IL-1alpha (Interleukin-1alpha) (Day 34): 361 pg/mL and 447 pg/mL and 587 pg/mL | Endothelin-1 (Day 34): 22.2 pg/mL and 20.2 pg/mL | IL-2 (Interleukin-2) (Day 34): <low> | IFN-gamma (Interferon-gamma) (Day 34): 7.14 pg/mL and 3.58 pg/mL | IL-4 (Interleukin-4) (Day 34): 17.7 pg/ml and <low> | IL-11 (Interleukin-11) (Day 34): 17.1 pg/mL | CD40 Ligand (Day 34): 1370 pg/mL and 2030 pg/mL and 2180 pg/mL | IL-10 (Interleukin-10) (Day 34): 94.2 pg/ml and <low> | Fibrinogen (Day 34): 136 ug/ml and <low> | GCP-2 (Granulocyte Chemotactic Potein-2) (Day 41): 16.9 ng/mL and 16.3 ng/mL and 20.9 ng/mL | IL-17-(Interleukin-17) (Day 41): 0.00572 ng/ml (2×) and <low> | GST-alpha (Glutathione S-Transferase alpha) (Day 41): 1.01 ng/mL and 0.477 ng/mL and 1.64 ng/mL | IL-1beta (Interleukin-1beta) (Day 41): 4.36 ng/ml and 5.12 ng/ml (2×) | IL-12p70-(Interleukin-12p70) (Day 41): <low> (2×) and 0.0914 ng/ml | FGF-basic (Fibroblast Growth Factor-basic) (Day 41): 19.9 ng/mL and 17.8 ng/mL and 18.8 ng/mL | Haptoglobin (Day 41): 267 µg/mL and 270 µg/mL and 193 µg/mL | IL-18 (Interleukin-18) (Day 41): 13.3 ng/mL and 11.7 ng/mL and 11.5 ng/mL | CRP (C Reactive Protein) (Day 41): 17.1 µg/mL and 10.6 µg/mL and 12.1 µg/mL | Factor VII (Day 41): 36.9 ng/mL and 30.4 ng/mL and 27.7 ng/mL | FGF-9 (Fibroblast Growth Factor-9) (Day 41): <low> | GM-CSF (Granulocyte Macrophage-Colony Stimulating Factor) (Day 41): <low> | Apo A1 (Apoilpoprotein A1) (Day 41): 46.8 µg/mL and 49.5 µg/mL and 46 µg/mL | CD40 (Day 41): 108 pg/mL and 105 pg/mL and 140 pg/mL | Eotaxin (Day 41): 629 pg/mL and 493 pg/mL and 694 pg/mL | IL-3 (Interleukin-3) (Day 41): <low> | EGF (Epidermal Growth Factor) (Day 41): 28.4 pg/mL and 16.3 pg/mL and 18.4 pg/mL | IL-1alpha (Interleukin-1alpha) (Day 41): 488 pg/mL and 284 pg/mL and 1950 pg/mL | Endothelin-1 (Day 41): 21.2 pg/mL and 20.2 pg/mL and 16 pg/mL | IL-2 (Interleukin-2) (Day 41): <low> | IFN-gamma (Interferon-gamma) (Day 41): 3.58 pg/ml (2×) and 7.14 pg/ml | IL-4 (Interleukin-4) (Day 41): 35.7 pg/ml and 17.7 pg/ml (2×) | IL-11 (Interleukin-11) (Day 41): 17.1 pg/ml and <low> (2×) | CD40 Ligand (Day 41): 1680 pg/mL and 1630 pg/mL and 1830 pg/mL | IL-10 (Interleukin-10) (Day 41): <low> | Fibrinogen (Day 41): <low> (2×) and 118 ug/ml
